This is an account of results in EP4342530A1, “SORTILIN MODULATORS” (Insusense ApS, priority 2022, dated 2024).

pIC50: −log10 of the molar value.

In this assay the target is T1, h-Sortilin (Homo sapiens, UniProt Q99523).
T1 sequence (Q99523 78-831): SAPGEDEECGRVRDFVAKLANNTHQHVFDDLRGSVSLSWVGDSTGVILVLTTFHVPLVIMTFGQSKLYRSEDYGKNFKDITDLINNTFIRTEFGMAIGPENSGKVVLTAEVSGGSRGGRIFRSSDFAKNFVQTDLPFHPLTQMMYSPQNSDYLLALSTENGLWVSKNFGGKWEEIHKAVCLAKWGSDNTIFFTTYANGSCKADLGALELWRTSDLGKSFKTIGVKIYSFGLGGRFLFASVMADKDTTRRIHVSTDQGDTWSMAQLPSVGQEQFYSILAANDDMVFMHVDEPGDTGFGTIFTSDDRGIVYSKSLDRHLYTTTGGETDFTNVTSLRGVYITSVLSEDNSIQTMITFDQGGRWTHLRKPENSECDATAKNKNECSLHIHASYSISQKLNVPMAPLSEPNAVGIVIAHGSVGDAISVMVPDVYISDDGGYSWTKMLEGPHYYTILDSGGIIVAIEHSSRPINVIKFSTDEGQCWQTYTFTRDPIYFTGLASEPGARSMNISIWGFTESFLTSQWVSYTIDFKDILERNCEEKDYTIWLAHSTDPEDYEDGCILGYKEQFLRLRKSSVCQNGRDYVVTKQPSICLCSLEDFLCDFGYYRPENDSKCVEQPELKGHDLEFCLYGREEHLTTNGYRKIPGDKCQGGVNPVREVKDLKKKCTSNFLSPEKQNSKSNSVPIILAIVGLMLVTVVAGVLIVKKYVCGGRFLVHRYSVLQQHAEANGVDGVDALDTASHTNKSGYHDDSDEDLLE
Kind of assay: Neurotensin scintillation proximity assay (displacement of [3H]-neurotensin binding). Particulars: 150 nM 6his-Sortilin, 5 nM [3H]-Neurotensin; average of at least 2 determinations; read-out: IC50 [3H]Neurotensin SPA. The method, then:
The exemplified compounds of the invention were tested in a Neurotensin (NTS) scintillation proximity assay (SPA). NTS, which is a 13 amino acid neuropeptide, is a sortilin ligand. The IC50 is a measure of the amount of the compound required to inhibit the binding of NTS to sortilin by 50%. The skilled person will recognise that the lower the IC50 value, the less of the compound needed to achieve the desired effect, and as a result, the chances of undesirable off-target effects are reduced.
Compound affinity was determined by measuring the displacement of [3H]-neurotensin binding to h-Sortilin in SPA format. Total volume of 40 µl in 50 mM HEPES pH 7.4 assay buffer containing 100 mM NaCl, 2.0 mM CaCl2, 0.1% BSA and 0.1% Tween-20. Compound pre-incubation for 30 minutes at room temperature with 150 nM of 6his-Sortilin before 5 nM [3H]-Neurotensin and Ni chelate imaging beads (Perkin Elmer) were added, after 6 hours the plate was read on a ViewLux with 360 s exposure time. Dose-response evaluation of compounds was performed with 8 concentrations of drugs (covering 3 decades). IC50 values were calculated by nonlinear regression using the sigmoid concentration-response (variable slope) using CDD Vault software. All values reported are average of at least 2 determinations.
Usually pIC50 stands for the negative decadic logarithm of the IC50, by convention in mol/L. On to `CN1C(=O)CCc2cc(CN[C@@H](CCC(C)(C)C)C(=O)O)ccc21` [Example 27, (2S)-5,5-dimethyl-2-{[(1-methyl-2-oxo-1,2,3,4-tetrahydroquinolin-6-yl)methyl]amino}hexanoic acid], for which the pIC50 was 6.12.

Take `CN1CCc2cc(CN[C@@H](CCC(C)(C)C)C(=O)O)ccc2C1=O` [Example 24, (2S)-5,5-dimethyl-2-{[(2-methyl-1-oxo-1,2,3,4-tetrahydroisoquinolin-6-yl)methyl]amino}hexanoic acid]: the pIC50 is 6.20.

`C[C@@H](N[C@@H](CCC(C)(C)C)C(=O)O)c1ccc2c(c1)COCC2` [Example 64]: the pIC50 is 6.38.

With `CC(C)(C)CC[C@H](NCc1ccc2c(c1)CCC(=O)N2)C(=O)O` [Example 31, (2S)-5,5-dimethyl-2-{[(2-oxo-1,2,3,4-tetrahydroquinolin-6-yl)methyl]amino}hexanoic acid], the negative logarithm of the IC50 (pIC50) is 6.05.

Turning to `COc1cccc([C@H](CCO)N[C@@H](CCC(C)(C)C)C(=O)O)c1` [Example 41], the negative logarithm of the IC50 (pIC50) is 6.12.

As to `CC(C)(C)CC[C@H](NCc1cccc2c1CCC2)C(=O)O` [Example 74], the pIC50 was 6.07.

`CN1CCc2ccc(CN[C@@H](CCC(C)(C)C)C(=O)O)cc2C1` [Example 20, (2S)-5,5-dimethyl-2-{[(2-methyl-1,2,3,4-tetrahydroisoquinolin-7-yl)methyl]amino}hexanoic acid]: the negative-log IC50 (pIC50) was 6.33.

For `CC(C)(C)CC[C@H](NCc1ccc2c(c1)NC(=O)CC2)C(=O)O` [Example 29, (2S)-5,5-dimethyl-2-{[(2-oxo-1,2,3,4-tetrahydroquinolin-7-yl)methyl]amino}hexanoic acid], the negative-log IC50 (pIC50) was 6.54.

`CC(C)(C)CC[C@H](NCc1ccc2c(c1)N(C(=O)OC(C)(C)C)CCC2)C(=O)O` [Example 32, (2S)-2-[({1-[(tert-butoxy)carbonyl]-1,2,3,4-tetrahydroquinolin-7-yl}methyl)amino]-5,5-dimethylhexanoic acid]: the pIC50 is 6.89.

For `CC(C)(C)CC[C@H](NCc1cccc2c1COCC2)C(=O)O` [Example 67], the pIC50 is 6.30.

For the compound `C[C@H](N[C@@H](CCC(C)(C)C)C(=O)O)c1ccc2c(c1)OCCC2` [Example 57], the pIC50 is 6.52.

Regarding `Cc1cc(CN[C@@H](CCC(C)(C)C)C(=O)O)cc2c1CCC2` [Example 26, (2S)-5,5-dimethyl-2-{[(7-methyl-2,3-dihydro-1H-inden-5-yl)methyl]amino}hexanoic acid], the pIC50 was 6.28.

Turning to `CC(C)(C)CC[C@H](NCc1cnc2c(c1)OCCO2)C(=O)O` [Example 60], the pIC50 was 6.09.

On to `CC(C)(C)CCC(N[C@@H](CCO)c1ccccc1)C(=O)O` (mixture of isomers) [Example 39, 2-{[(1S)-3-hydroxy-1-phenylpropyl]amino}-5,5-dimethylhexanoic acid], for which the pIC50 is 6.39.

As for `C[C@@H](N[C@@H](CCC(C)(C)C)C(=O)O)c1cccc2c1OCCO2` [Example 75], the pIC50 was 5.91.

Take `CC(C)(C)CC[C@H](NCc1cccc(-n2cncn2)c1)C(=O)O` [Example 35, (2S)-5,5-dimethyl-2-({[3-(1H-1,2,4-triazol-1-yl)phenyl]methyl}amino)hexanoic acid]: the pIC50 was 6.02.

With `C[C@H](N[C@@H](CCC(C)(C)C)C(=O)O)c1cccc2c1OCCO2` [Example 73], the pIC50 was 6.19.

Consider `C[C@H](N[C@@H](CCC(C)(C)C)C(=O)O)c1ccc2c(c1)COCC2` [Example 69], for which the pIC50 was 6.23.

Turning to `C[C@H](N[C@@H](CCC(C)(C)C)C(=O)O)c1ccc2c(c1)CCCC2` [Example 12], the pIC50 was 6.21.

For `CC(C)(C)CC[C@H](NCc1cccc2c1COC2)C(=O)O` [Example 65], the pIC50 is 6.21.

On to `CC(C)(C)CC[C@H](NCc1ccc2c(c1)CCO2)C(=O)O` [Example 66], for which the pIC50 was 6.15.

For `CC(C)(C)CC[C@H](NCc1cnc2c(c1)CCCO2)C(=O)O` [Example 53], the pIC50 was 6.24.

`CN(C)c1cccc(CN[C@@H](CCC(C)(C)C)C(=O)O)c1` [Example 37, (2S)-2-({[3-(dimethylamino)phenyl]methyl}amino)-5,5-dimethylhexanoic acid]: the negative-log IC50 (pIC50) is 6.24.

Turning to `CN1CCc2ccc(CN[C@@H](CCC(C)(C)C)C(=O)O)cc2C1=O` [Example 23, (2S)-5,5-dimethyl-2-{[(2-methyl-1-oxo-1,2,3,4-tetrahydroisoquinolin-7-yl)methyl]amino}hexanoic acid], the negative-log IC50 (pIC50) is 6.37.

For the compound `Cc1cc(CN[C@@H](CCC(C)(C)C)C(=O)O)cc2c1CCCO2` [Example 55], the pIC50 was 6.51.

`COc1cccc([C@@H](CCO)N[C@@H](CCC(C)(C)C)C(=O)O)c1` [Example 42]: the negative-log IC50 (pIC50) is 6.23.

For `CC(C)(C)CC[C@H](NCc1cccc(N2CCCC2)c1)C(=O)O` [Example 77], the negative-log IC50 (pIC50) is 6.46.

Turning to `CC(C)(C)CC[C@H](NCc1ccc2c(c1)OCC2)C(=O)O` [Example 62], the pIC50 is 6.37.

Take `CC(C)(C)CC[C@H](NCc1ccc(Oc2ccccc2)cc1)C(=O)O` [Example 36]: the pIC50 is 6.28.

Take `CC(C)(C)CC[C@H](N[C@H](CCO)c1ccccc1)C(=O)O` [Example 40, (2S)-2-{[(1R)-3-hydroxy-1-phenylpropyl]amino}-5,5-dimethylhexanoic acid]: the pIC50 is 5.19.

Take `CC(C)(C)CC[C@H](NCc1cccc2c1CCOC2)C(=O)O` [Example 63]: the negative-log IC50 (pIC50) is 6.19.

With `CC(C)(C)CC[C@H](NCc1ccc2c(c1)CCNC2)C(=O)O` [Example 15, (S)-5,5-dimethyl-2-(((1,2,3,4-tetrahydroisoquinolin-6-yl)methyl)amino)hexanoic acid], the negative logarithm of the IC50 (pIC50) was 6.05.
